Measured values taken from patent publication US8598342B2, “Methods and compounds for antimicrobial intervention” (President and Fellows of Harvard College, priority 2008, dated 2013).
“Also recorded” adds a separate entry of the source.

How the values were obtained:
[1] = system: IPTG-inducible tarO strain of S. aureus; test: Growth of the IPTG-inducible tarO strain as a function of targocil concentration; format: cell-based, Staphylococcus aureus
Text: (Top) Schematic of the IPTG-inducible tarO operon. […] Data were normalized to the DMSO controls for each strain.

B. subtilis 168 = test: MIC panel of Gram-positive strains: B. subtilis 168; format: cell-based, Bacillus subtilis
Protocol: (§1) (A) Targocil MIC data for a panel of Gram-positive strains, including MRSA clinical isolates B5271 and 5340A. Growth was monitored in triplicate after 12 h at 28° C. using optical density. (B) Two dimensional drug interaction analysis between tunicamycin and targocil grown for 18 h at 30° C. […] At higher concentrations, tunicamycin is toxic because it inhibits cell wall biosynthesis. […] Varying concentrations of drug were added to […] of S. aureus RN4220 after 5 h and cell count was monitored over time at 30° C. […] Cells were grown at 28° C. for 12 h and monitored for growth using optical density (OD600). Data were normalized to the DMSO controls for each strain. (E) Two classes of mutants were examined: phage resistant (m1 3) and phage sensitive (m4-5).

S. aureus TarL = target: T1, S. aureus TarL (Staphylococcus aureus, UniProt Q2G1B8); test: In vitro enzyme inhibition assay, TarL (radiometric); format: biochemical; details: targocil 50 μg/mL; enzyme 200 nM
T1 construct: made in house
T1 sequence (Q2G1B8 1-562): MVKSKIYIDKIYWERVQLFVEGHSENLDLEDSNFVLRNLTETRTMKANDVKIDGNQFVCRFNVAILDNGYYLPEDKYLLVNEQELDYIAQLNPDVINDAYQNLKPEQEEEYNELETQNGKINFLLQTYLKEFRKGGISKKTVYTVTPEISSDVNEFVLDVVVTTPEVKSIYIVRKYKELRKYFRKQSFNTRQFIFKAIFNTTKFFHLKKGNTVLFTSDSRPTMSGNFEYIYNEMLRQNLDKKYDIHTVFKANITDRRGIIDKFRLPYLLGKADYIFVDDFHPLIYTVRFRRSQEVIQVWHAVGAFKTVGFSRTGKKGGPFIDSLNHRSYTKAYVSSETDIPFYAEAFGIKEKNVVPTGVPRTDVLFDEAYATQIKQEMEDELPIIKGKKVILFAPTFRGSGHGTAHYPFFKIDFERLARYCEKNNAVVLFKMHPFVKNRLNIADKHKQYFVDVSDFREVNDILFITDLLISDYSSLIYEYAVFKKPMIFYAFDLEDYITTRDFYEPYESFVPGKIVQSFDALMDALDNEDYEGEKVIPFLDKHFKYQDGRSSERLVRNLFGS
Protocol: (A) TarL reaction with heat-treated enzyme; (B) TarL reaction with active enzyme; (C) TarL reaction with 5 μM targocil; (D) TarL reaction with 50 μM targocil; (E) TarL reaction with 100 μM targocil.
(§2) S. aureus TarB, D, F, I, and L were cloned, overexpressed and purified as described previously (S. Brown, Y. H. Zhang, S. Walker, Chemistry & Biology 15, 12, Jan. 2008.) Radiometric in vitro assays were run to test the inhibitory effects of targocil on Tar B, D, F, and L, while TarI was assayed for targocil inhibition using an HPLC assay using conditions similar to those previously reported (ibid). See below for exact reaction conditions. […] In each case, a reaction with no targocil served as a negative control (active enzymatic reaction) and a reaction with heat-treated enzyme served as a positive control (no enzymatic reaction). Targocil was incubated with all reaction components except the substrates at room temperature. After 10 minutes, substrates were added and the reactions were allowed to proceed for 60 minutes. The reactions were quenched with DMF and the products were imaged/monitored as previously described (ibid).
TarL in vitro inhibition assay protocol and data. Each 3 μL reaction contained 1 μM [14C] (GroP)2-ManNAc-β-(1,4)-GlcNAc-pp-farnesyl, 50 μM CDP-ribitol, 20 mM Tris base pH 7.5, 100 mM NaCl, 10 mM MgCl2, 200 nM TarL and either 5, 50, or 100 μM targocil. […]

S. aureus TarF = target: T2, S. aureus TarF (Staphylococcus aureus, UniProt Q2G1C1); test: In vitro enzyme inhibition assay, TarF (radiometric); format: biochemical; details: targocil 50 μg/mL; enzyme 200 nM
T2 construct: made in house
T2 sequence (Q2G1C1 1-389): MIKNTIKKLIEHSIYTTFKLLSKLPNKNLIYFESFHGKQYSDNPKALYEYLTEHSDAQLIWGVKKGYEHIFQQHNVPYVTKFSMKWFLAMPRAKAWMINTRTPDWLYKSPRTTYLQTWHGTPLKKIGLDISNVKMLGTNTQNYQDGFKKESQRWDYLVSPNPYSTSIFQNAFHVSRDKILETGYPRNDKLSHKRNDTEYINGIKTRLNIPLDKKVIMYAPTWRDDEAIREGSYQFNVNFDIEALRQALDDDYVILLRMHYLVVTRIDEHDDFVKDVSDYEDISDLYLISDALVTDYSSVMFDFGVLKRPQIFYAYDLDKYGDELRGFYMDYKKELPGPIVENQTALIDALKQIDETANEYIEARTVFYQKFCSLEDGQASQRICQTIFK
Protocol: as §2
TarF in vitro inhibition assay protocol. Each 3 μL reaction contained 1 μM [14C]-GroP-ManNAc β-(1,4)-GlcNAc-pp-farnesyl, 3 μM [14C]-CDP-glycerol, 20 mM Tris base pH 7.5, 100 mM NaCl, 10 mM MgCl2, 200 nM TarF. The reactions were quenched and imaged as described above for TarB.

[2] = system: S. aureus RN4220 TarG:W73C (m5); test: MIC analysis of RN4220 carrying the mutant tarG allele TarG:W73C; format: cell-based, Staphylococcus aureus; details: mutant allele exchanged into RN4220
Text: Therefore, we conclude that TarG is a target of targocil. […] (Davidson A L, Dassa E, Orelle C, & Chen J (2008) Microbiology and Molecular Biology Reviews 72:317-364) In addition to functioning as antibiotics, inhibitors such as targocil, and derivatives thereof, could be valuable tools for mechanistic and structural analyses of ABC transporters.

[3] = system: strain overexpressing S. aureus TarGH; test: Growth of S. aureus RN4220 overexpressing S. aureus tarGH; format: cell-based, Staphylococcus aureus; details: 28° C., 12 h, OD600
Protocol: as §1

`CCN(CC)c1nc2c(S(=O)(=O)c3ccccc3)nnn2c2ccc(Cl)cc12` [7-chloro-N,N-diethyl-3-(phenylsulfonyl)-[1,2,3]triazolo[1,5-a]quinazolin-5-amine] was tested. Which “effect on cell growth, tarO not induced” value ([1]; in the absence of IPTG) did it give?
Its value is “no effect”.

And the “effect on cell growth, tarO induced” value ([1]; in the presence of IPTG)?
Its value is “inhibited cell growth”.

What about the “susceptibility of B. subtilis 168” value (B. subtilis 168) of the same compound?
The value was “targocil resistance in B. subtilis 168”.

And the “inhibition of TarL” value (S. aureus TarL)?
The value was “None of these enzymes was inhibited”.

What about the “inhibition of TarF” value (S. aureus TarF) of the same compound?
The value was “None of these enzymes was inhibited”.

And the “resistance to targocil of TarG:W73C strain” value [2]?
Its value is “fully resistant; also recorded: confer resistance”.

And the “resistance to targocil of strain overexpressing S. aureus TarGH” value [3]?
Its value is “partially resistant; also recorded: partial resistance”.
